Experimental data: patent US20250320194A1, “PHARMACEUTICALLY ACCEPTABLE SALT AND CRYSTAL FORM OF FUSED PYRIDINE RING DERIVATIVE AND PREPARATION METHOD THEREFOR” (Jiangsu Hengrui Pharmaceuticals Co., Ltd., priority 2021, published 2025)

Assays:
[1] = Hygroscopicity of salt crystal forms (DVS, 25° C.); assay type: physicochemical; details: for Hygroscopicity 0.0% RH-95.0% RH / Hygroscopicity 20.0% RH-80.0% RH: DVS, 25° C.; for Crystal form: after DVS
Description: The test adopts SMS DVS Advantage, at 25° C., with a humidity range of 0 to 95% and a step of 10%. The judgment standard is that the dM/dT of each gradient mass change is less than 0.002%, TMAX is 360 minutes, and the cycle is two times. • 5. Cation chromatography • Instrument model: DIONEX AQUION ion chromatograph, USA • Detection method: conductivity; separation column: IonPac CS16-CG16 • Eluent: MSA 20Mm • Flow rate: 1.0 ml/min • 6. Anion chromatography • Instrument model: DIONEX INTEGRION HPIC ion chromatograph, USA • Detection method: conductivity; separation column: DionexIonPac™-AS11-HC • Eluent: EGC-500-KOH • Flow rate: 1.5 ml/min
Using Surface Measurement Systems advantage, at 25° C., the humidity starts from 50%, the humidity range is 0% to 95%, the step is 10%. The judgment standard was that the dM/dT of each gradient mass change is less than 0.002%, TMAX360 min, and the cycle was two times. The hygroscopicity of different salt crystal forms of the compound of formula I was investigated respectively.

[2] = Long-term/accelerated stability; details: for physical and chemical stability (conclusion): long-term accelerated stability conditions for 6 months
[3] = Stability under influencing factors (high temperature, high humidity, open, 30 days); details: for physical and chemical stability (conclusion): 75% RH and 92.5% RH

Structure (SMILES): CC(C)(C#Cc1nc(C(Cc2cc(F)cc(F)c2)NC(=O)Cn2nc(C(F)(F)F)c3c2C(F)(F)C2CC32)c(-c2ccc(Cl)c3c(NS(C)(=O)=O)nn(CC(F)(F)F)c23)c2c1CCC2)S(C)(=O)=O.O=S(=O)(O)O (centres unmarked) [Crystal form A of hydrosulfate]
- Hygroscopicity 0.0% RH-95.0% RH [1]: 4.55%
- Hygroscopicity 20.0% RH-80.0% RH [1]: 1.59%
- Crystal form [1]: Unchanged
- Purity % ([2]; 4° C., 1 month): 99.09%
- Purity % ([2]; 4° C., 2 months): 99.08%
- Purity % ([2]; 4° C., 3 months): 99.08%
- Purity % ([2]; 4° C., 6 months): 99.09%
- Purity % ([2]; 4° C., Start): 99.09%
- Purity % ([2]; 25° C., 60% RH, 1 month): 99.01%
- Purity % ([2]; 25° C., 60% RH, 2 months): 98.99%
- Purity % ([2]; 25° C., 60% RH, 3 months): 99.03%
- Purity % ([2]; 25° C., 60% RH, 6 months): 98.91%
- Purity % ([2]; 25° C., 60% RH, Start): 99.09%
- Purity % ([2]; 40° C., 75% RH, 1 month): 98.83%
- Purity % ([2]; 40° C., 75% RH, 2 months): 98.99%
- Purity % ([2]; 40° C., 75% RH, 3 months): 98.98%
- Purity % ([2]; 40° C., 75% RH, 6 months): 98.76%
- Purity % ([2]; 40° C., 75% RH, Start): 99.09%
- physical and chemical stability (conclusion) [2]: good physical and chemical stability
- physical stability (conclusion) ([3]; 40° C., 60° C., 7500 RH and 92.5% RH, crystal form not transformed): good physical stability
- chemical stability (conclusion) ([3]; 40° C., 7500 RH and 92.5%0 RH, not at high temperature (60° C.)): good chemical stability
- Color, properties ([3]; 40° C., 5 days): White solid
- Crystal form ([3]; 40° C., 5 days): Unchanged
- Purity % ([3]; 40° C., 5 days): 99.06%
- Color, properties ([3]; 40° C., 10 days): White solid
- Crystal form ([3]; 40° C., 10 days): Unchanged
- Purity % ([3]; 40° C., 10 days): 99.01%
- Color, properties ([3]; 40° C., 30 days): White solid
- Crystal form ([3]; 40° C., 30 days): Unchanged
- Purity % ([3]; 40° C., 30 days): 99.03%
- Color, properties ([3]; 60° C., 5 days): White solid
- Crystal form ([3]; 60° C., 5 days): Unchanged
- Purity % ([3]; 60° C., 5 days): 96.46%
- Color, properties ([3]; 60° C., 10 days): White solid
- Crystal form ([3]; 60° C., 10 days): Unchanged
- Purity % ([3]; 60° C., 10 days): 96.22%
- Color, properties ([3]; 60° C., 30 days): White solid
- Crystal form ([3]; 60° C., 30 days): Unchanged
- Purity % ([3]; 60° C., 30 days): 95.17%
- Color, properties ([3]; 75% RH, 5 days): White solid
- Crystal form ([3]; 75% RH, 5 days): Unchanged
- Purity % ([3]; 75% RH, 5 days): 99.11%
- Color, properties ([3]; 75% RH, 10 days): White solid
- Crystal form ([3]; 75% RH, 10 days): Unchanged
- Purity % ([3]; 75% RH, 10 days): 99.11%
- Color, properties ([3]; 75% RH, 30 days): White solid
- Crystal form ([3]; 75% RH, 30 days): Unchanged
- Purity % ([3]; 75% RH, 30 days): 99.05%
- Color, properties ([3]; 92.5% RH, 5 days): White solid
- Crystal form ([3]; 92.5% RH, 5 days): Unchanged
- Purity % ([3]; 92.5% RH, 5 days): 99.18%
- Color, properties ([3]; 92.5% RH, 10 days): White solid
- Crystal form ([3]; 92.5% RH, 10 days): Unchanged
- Purity % ([3]; 92.5% RH, 10 days): 99.02%
- Color, properties ([3]; 92.5% RH, 30 days): White solid
- Crystal form ([3]; 92.5% RH, 30 days): Unchanged
- Purity % ([3]; 92.5% RH, 30 days): 99.07%
- Color, properties ([3]; Start, 0 days): White solid
- Purity % ([3]; Start, 0 days): 99.09%

Structure (SMILES): CC(C)(C#Cc1nc(C(Cc2cc(F)cc(F)c2)NC(=O)Cn2nc(C(F)(F)F)c3c2C(F)(F)C2CC32)c(-c2ccc(Cl)c3c([N-]S(C)(=O)=O)nn(CC(F)(F)F)c23)c2c1CCC2)S(C)(=O)=O.[Na+] (centres unmarked) [Crystal form II of the sodium salt]
- Hygroscopicity 0.0% RH-95.0% RH [1]: 34.16%
- Hygroscopicity 20.0% RH-80.0% RH [1]: 11.61%
- Crystal form [1]: Unchanged
- Purity % ([2]; 4° C., 1 month): 97.83%
- Purity % ([2]; 4° C., 2 months): 97.83%
- Purity % ([2]; 4° C., 3 months): 97.79%
- Purity % ([2]; 4° C., 6 months): 97.77%
- Purity % ([2]; 4° C., Start): 97.76%
- Purity % ([2]; 25° C., 60% RH, 1 month): 97.82%
- Purity % ([2]; 25° C., 60% RH, 2 months): 97.82%
- Purity % ([2]; 25° C., 60% RH, 3 months): 97.86%
- Purity % ([2]; 25° C., 60% RH, 6 months): 97.79%
- Purity % ([2]; 25° C., 60% RH, Start): 97.76%
- Purity % ([2]; 40° C., 75% RH, 1 month): 97.81%
- Purity % ([2]; 40° C., 75% RH, 2 months): 97.80%
- Purity % ([2]; 40° C., 75% RH, 3 months): 97.83%
- Purity % ([2]; 40° C., 75% RH, 6 months): 97.76%
- Purity % ([2]; 40° C., 75% RH, Start): 97.76%
- physical and chemical stability (conclusion) [2]: good physical and chemical stability
- physical and chemical stability (conclusion) ([3]; 40° C., 60° C.): good physical and chemical stability
- Color, properties ([3]; 40° C., 5 days): White solid
- Crystal form ([3]; 40° C., 5 days): Unchanged
- Purity % ([3]; 40° C., 5 days, listed as II-crystal form of the sodium salt): 97.88%
- Color, properties ([3]; 40° C., 10 days): White solid
- Crystal form ([3]; 40° C., 10 days): Unchanged
- Purity % ([3]; 40° C., 10 days, listed as II-crystal form of the sodium salt): 97.83%
- Color, properties ([3]; 40° C., 30 days): White solid
- Crystal form ([3]; 40° C., 30 days): Unchanged
- Purity % ([3]; 40° C., 30 days, listed as II-crystal form of the sodium salt): 97.88%
- Color, properties ([3]; 60° C., 5 days): White solid
- Crystal form ([3]; 60° C., 5 days): Unchanged
- Purity % ([3]; 60° C., 5 days, listed as II-crystal form of the sodium salt): 97.86%
- Color, properties ([3]; 60° C., 10 days): White solid
- Crystal form ([3]; 60° C., 10 days): Unchanged
- Purity % ([3]; 60° C., 10 days, listed as II-crystal form of the sodium salt): 97.88%
- Color, properties ([3]; 60° C., 30 days): White solid
- Crystal form ([3]; 60° C., 30 days): Unchanged
- Purity % ([3]; 60° C., 30 days, listed as II-crystal form of the sodium salt): 97.90%
- Color, properties ([3]; 75% RH, 5 days): White solid
- Crystal form ([3]; 75% RH, 5 days): Unchanged
- Purity % ([3]; 75% RH, 5 days, listed as II-crystal form of the sodium salt): 97.84%
- Color, properties ([3]; 75% RH, 10 days): White solid
- Crystal form ([3]; 75% RH, 10 days): Unchanged
- Purity % ([3]; 75% RH, 10 days, listed as II-crystal form of the sodium salt): 97.84%
- Color, properties ([3]; 75% RH, 30 days): White solid
- Crystal form ([3]; 75% RH, 30 days): Unchanged
- Purity % ([3]; 75% RH, 30 days, listed as II-crystal form of the sodium salt): 97.82%
- Color, properties ([3]; 92.5% RH, 5 days): White solid
- Crystal form ([3]; 92.5% RH, 5 days): Unchanged
- Purity % ([3]; 92.5% RH, 5 days, listed as II-crystal form of the sodium salt): 97.84%
- Color, properties ([3]; 92.5% RH, 10 days): White solid
- Crystal form ([3]; 92.5% RH, 10 days): Unchanged
- Purity % ([3]; 92.5% RH, 10 days, listed as II-crystal form of the sodium salt): 97.85%
- Color, properties ([3]; 92.5% RH, 30 days): White solid
- Crystal form ([3]; 92.5% RH, 30 days): Unchanged
- Purity % ([3]; 92.5% RH, 30 days, listed as II-crystal form of the sodium salt): 97.82%
- Color, properties ([3]; Start, 0 days): White solid
- Purity % ([3]; Start, 0 days): 97.76%

Structure (SMILES): CC(C)(C#Cc1nc(C(Cc2cc(F)cc(F)c2)NC(=O)Cn2nc(C(F)(F)F)c3c2C(F)(F)C2CC32)c(-c2ccc(Cl)c3c([N-]S(C)(=O)=O)nn(CC(F)(F)F)c23)c2c1CCC2)S(C)(=O)=O.[K+] (centres unmarked) [Crystal form a of the potassium salt]
- Hygroscopicity 0.0% RH-95.0% RH [1]: 8.77%
- Hygroscopicity 20.0% RH-80.0% RH [1]: 2.86%
- Crystal form [1]: Unchanged
- Crystal form ([2]; 40° C., 75% RH): Deliquesce
- physical and chemical stability (conclusion) [2]: good physical and chemical stability
- physical and chemical stability (conclusion) ([3]; 40° C., 60° C.): good physical and chemical stability
- Color, properties ([3]; 40° C., 5 days): White solid
- Crystal form ([3]; 40° C., 5 days): Unchanged
- Purity % ([3]; 40° C., 5 days): 97.97%
- Color, properties ([3]; 40° C., 10 days): White solid
- Crystal form ([3]; 40° C., 10 days): Unchanged
- Purity % ([3]; 40° C., 10 days): 98.04%
- Color, properties ([3]; 40° C., 30 days): White solid
- Crystal form ([3]; 40° C., 30 days): Unchanged
- Purity % ([3]; 40° C., 30 days): 97.96%
- Color, properties ([3]; 60° C., 5 days): White solid
- Crystal form ([3]; 60° C., 5 days): Unchanged
- Purity % ([3]; 60° C., 5 days): 98.01%
- Color, properties ([3]; 60° C., 10 days): White solid
- Crystal form ([3]; 60° C., 10 days): Unchanged
- Purity % ([3]; 60° C., 10 days): 98.01%
- Color, properties ([3]; 60° C., 30 days): White solid
- Crystal form ([3]; 60° C., 30 days): Unchanged
- Purity % ([3]; 60° C., 30 days): 97.82%
- Color, properties ([3]; 75% RH, 5 days): White solid
- Crystal form ([3]; 75% RH, 5 days): Unchanged
- Purity % ([3]; 75% RH, 5 days): 97.96%
- Color, properties ([3]; 75% RH, 10 days): White solid
- Crystal form ([3]; 75% RH, 10 days): Unchanged
- Purity % ([3]; 75% RH, 10 days): 98.04%
- Color, properties ([3]; 75% RH, 30 days): White solid
- Crystal form ([3]; 75% RH, 30 days): Unchanged
- Purity % ([3]; 75% RH, 30 days): 98.02%
- Color, properties ([3]; 92.5% RH, 5 days): White solid
- Crystal form ([3]; 92.5% RH, 5 days): Unchanged
- Purity % ([3]; 92.5% RH, 5 days): 97.96%
- Color, properties ([3]; 92.5% RH, 10 days): White solid
- Crystal form ([3]; 92.5% RH, 10 days): Unchanged
- Purity % ([3]; 92.5% RH, 10 days): 98.04%
- Color, properties ([3]; 92.5% RH, 30 days): White solid
- Crystal form ([3]; 92.5% RH, 30 days): Unchanged
- Purity % ([3]; 92.5% RH, 30 days): 98.02%
- Color, properties ([3]; Start, 0 days): White solid
- Purity % ([3]; Start, 0 days): 98.03%
